In patent US20070270493A1, “Composition with Preventive or Improvement Effect on Stress-Induced Brain Function Impairment and Related Symptoms or Diseases” (priority 2004, published 2007):

Tested on: mice subjected to restraint stress
Assay: Morris water maze learning test
Assay type: in vivo, male ICR mice
Details: mice after 6 hour restraint stress; TGA40S-containing diet from 3 weeks before, about 25 mg TGA40S (10 mg arachidonic acid) per mouse daily; five trials a day for 5 days; FIG. 1
Text: The experimental groups consisted of 56 two- to three-month-old male ICR mice, divided into a control diet group (27 mice) and a TGA40S-containing diet group (29 mice), with the control diet or TGA40S-containing diet shown in Table 1 being given to each group for 3 weeks. Each group was further divided into non-restrained groups (non-restrained control diet group (13), non-restrained arachidonic acid (ARA) diet group (15)) and restrained groups (restrained control diet group (14), restrained ARA diet group ([…])). The restraining was accomplished using a wire mesh restraining tube, once for a 6 hour period three weeks after the start of feeding. The control diet or TGA40S-containing diet shown in Table 1 continued to be fed to each group for the remaining experiment period. The TGA40S used for the TGA40S-containing diet was the product obtained in Example 1. Since the daily ingestion was approximately 5 g per mouse, the daily intake of TGA40S was 25 mg per mouse. Also, since the total fatty acids bonded to the arachidonic acid-containing oils or fats (triglycerides) prepared in Example 1 included 40 wt % arachidonic acid, the daily intake of arachidonic acid was 10 mg per mouse. […] The time required for the mouse to reach the escape platform (escape latency time) was recorded as the learning index.

CCCCC/C=C\C/C=C\C/C=C\C/C=C\CCCC(=O)O [arachidonic acid]
learning ability (escape latency time, time required to reach the escape platform): exhibits an improving effect against decline in learning ability or cognitive ability as a result of stress
